Entries after “also recorded” stand apart in the source; their conditions may differ.

For assay [1], the system named is ERK1/2. Briefly: ERK1/2 phosphorylation immunoblot in JEG-3 cells. It counts as cell-based, human. The following applies: for extent of ERK1/2 phosphorylation (activation): 100 nM, 10 minutes.
Assay [2] relates to ERK1/2. In words: ERK1/2 phosphorylation immunoblot in BPH-1 cells. It counts as cell-based, human. The following applies: for extent of ERK1/2 activation: FIG. 5 panel c. An excerpt:
The panel depicts a representative anti-phospho-ERK1/2 w-c lysate immunoblot of stimulated BPH-1 cell extracts. […] Each bar of the histogram represents the mean±s.e. mean of three to four experimental replicates. […] Panel c) depicts the extent of ERK1/2 activation in BPH-1 cells induced by stimulation with GnRH I, II, Ant 135-25 and Ant 135-18. […] Each bar of the histogram represents the mean± s.e. mean of three to four experimental replicates.
(In western blotting, separated proteins are transferred to a membrane and probed.)

The subject of assay [3] is human JEG-3 choriocarcinoma cells. In words: Anti-proliferative effect on JEG-3 cells, viable cell count after 5 days. It counts as cell-based. The following applies: 5 days continuous treatment, trypan blue exclusion. How it is done:
Low cell density JEG-3 cell subcultures were treated for 5 days continuously with the indicated doses of GnRH I (a), GnRH II (b), antagonist 135-18 (c) or antagonist 135-25 (d) added directly to Dulbecco's modified Eagles medium supplemented with 10% FCS, glutamine and penicillin/streptomycin. Ligands were replenished every 24 h. At the end of the stimulation period cells were removed from the growth plates with trypsin and mixed with trypan blue dye (enters non-viable cells). Only viable cells were therefore counted using a haemocytometer in quadruplicate for each ligand dose. The bars in each histogram represent the mean±s.e. mean of n=4 experiments.
Each cell type was plated at an initial minimal confluency (10-20%) to allow for 5 days of normal continual cell growth that would not result in 100% cell confluency by day 5. Each ligand was incubated, in triplicate for every experimental concentration, with the cell monolayers for five days with replacement of the ligand every 12 h. At the end of the stimulation period the number of viable cells was estimated by their capacity to prevent uptake of Trypan Blue stain.

The subject of a further assay is PLC-β. In words: Inositol phosphate accumulation in BPH-1 cells. It counts as cell-based, human. The following applies: for inositol phosphate accumulation: 60 minutes, 10 mM LiCl, doses up to 50 μM. As for the experimental part:
BPH-1 cells were pre-incubated with ^3H-myoinositol (1 μCi/ml) for 48 h prior to ligand stimulation (60 minutes). Ligand stimulated inositol phosphate production was measured in the presence of 10 mM LiCl. […] IP accumulation can be used as a read out/marker for Gαq activation since the activation of PLCβ is PTX-resistant.

The target in a further assay is T1, Type I GnRH receptor (Rattus norvegicus, UniProt P30969).
T1 construct: expressed in transfected cells
T1 sequence (P30969 1-327): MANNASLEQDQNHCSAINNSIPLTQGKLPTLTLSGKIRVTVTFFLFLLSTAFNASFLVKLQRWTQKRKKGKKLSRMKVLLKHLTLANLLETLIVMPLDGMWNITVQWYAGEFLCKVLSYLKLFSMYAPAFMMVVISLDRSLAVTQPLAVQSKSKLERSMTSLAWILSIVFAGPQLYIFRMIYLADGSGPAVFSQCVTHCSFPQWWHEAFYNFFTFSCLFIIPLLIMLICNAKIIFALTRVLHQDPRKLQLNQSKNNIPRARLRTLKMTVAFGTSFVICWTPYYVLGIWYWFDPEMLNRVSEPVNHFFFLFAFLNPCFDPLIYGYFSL
Briefly: Inositol phosphate accumulation in SCL60 (HEK293) cells. The following applies: GnRH I 10 nM. It counts as cell-based. As for the experimental part: (§1) The histograms in panels a and b represent inositol phosphate accumulation data from HEK293 cells stably expressing the Type I GnRH receptor only (SCL60). […] In panels c and d, the liberated inositol phosphates generated were measured in the proto-gonadotrope cells (αT4) stably expressing the marmoset Type II GnRH receptor (designated αT4-II).
(§2) The ability of the four major agents under study at activating ectopically expressed Type I or Type II GnRHR were tested (FIG. 12). The classical signal transduction cascade activated by GnRHR stimulation is the Gαq-PLC-β cascade. Both Type I and II receptor can stimulate the Gαq-PLC type-G-protein and activate PLC-β which cleaves phosphatidylinositol bisphosphate (PIP2) into inositol trisphosphate (IP3), other lower inositol phosphates (IPn) and diacylglycerol (DAG). The major function of IP3 is to elevate intracellular Ca^2+ while DAG causes the activation of specific PKC (protein kinase C) isoforms.
(§3) Panels a and b of FIG. 12 depict the generation of free cytoplasmic ^3H-myo-inositols on the plasma membranes of HEK293 cells expressing the Type I GnRHR and of αT4 gonadotropes expressing the marmoset Type II GnRHR. Prior to agonist stimulation the respective cells were incubated in inositol-free growth media supplemented with 1 μCi/ml ^3H-myoinositol for 48 h. G protein coupled receptor (GPCR)-induced activation of PLC-β results in the cleavage of PIP2 (incorporating tritium ^3H) into free lower inositol phosphates (IPns).

Assay [4] has as its target T2, marmoset Type II GnRH receptor (Callithrix jacchus, UniProt Q95MG6).
T2 construct: expressed in transfected cells
T2 sequence (Q95MG6 1-380): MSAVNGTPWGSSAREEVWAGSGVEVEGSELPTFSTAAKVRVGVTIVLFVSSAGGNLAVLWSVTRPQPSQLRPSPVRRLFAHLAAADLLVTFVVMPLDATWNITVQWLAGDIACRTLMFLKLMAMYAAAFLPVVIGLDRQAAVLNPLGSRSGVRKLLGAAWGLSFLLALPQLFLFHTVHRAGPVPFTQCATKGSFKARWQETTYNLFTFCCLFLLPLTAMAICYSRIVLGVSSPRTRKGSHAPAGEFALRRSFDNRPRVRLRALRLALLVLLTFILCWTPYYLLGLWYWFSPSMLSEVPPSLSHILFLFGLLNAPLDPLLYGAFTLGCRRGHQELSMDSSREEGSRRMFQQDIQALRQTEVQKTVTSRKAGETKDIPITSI
Briefly: Inositol phosphate accumulation in αT4-II cells. The following applies: GnRH II 10 nM. It counts as cell-based. As for the experimental part:
as §1, §2, §3

Consider `C[S+]([O-])c1ccc(-c2nc(-c3ccncc3)c(-c3ccc(F)cc3)[nH]2)cc1` (centres unmarked) [SB203580], for which the “effect on GnRH I activation of ERK1/2” value with ERK1/2 [1] (20 μM SB203580, data not shown) was “not significantly affecting the activation of ERK1/2 MAPKs”. In addition, in the assay on ERK1/2 [2] (1 μM SB203580, data not shown), the “effect on GnRH-mediated ERK activation” value is given as “no significant effect”.

For “Ac-D-Nal(2)-D-4-ClPhe-D-Pal-Ser-1-MePal-D-IsopropylLys-Leu-IsopropylLys-Pro-D-AlaNH2 [Ant 135-25]”, the “anti-proliferative effect (viable cell number)” value (“anti-proliferative effect” for short) in assay [3] is on record as “clear dose-response relationships for the inhibition of cellular growth”. The “extent of ERK1/2 phosphorylation (activation)” value (“extent … (activation)” below) in the assay with ERK1/2 [1] was “activate ERK1/2 to a similar extent”. Also, the “extent of ERK1/2 activation” value with ERK1/2 [2] is reported as “A similar pattern to JEG-3 of ligand activation”. Also, the inositol phosphate accumulation result in the assay with PLC-β was “only high doses of GnRH I and Ant 135-25 cause any significant accumulation of inositol phosphates; also recorded: small capacity to induce inositol phosphate accumulation”. The “agonistic activity: liberated inositol phosphates at Type I GnRH receptor” value (“agonistic activity … at Type I GnRH receptor” for short) at Type I GnRH receptor was “no classical agonistic activity is demonstrated”; at Type I GnRH receptor (listed as 135-25), “no IPn-generating capacity”; at Type I GnRH receptor (listed as Ant135-25), “demonstrate no partial agonistic activity”; at Type I GnRH receptor (listed as antagonist 135-25), “failed to generate significant free inositol phosphate”. For the same compound, the “agonistic activity: liberated inositol phosphates at marmoset Type II GnRH receptor” value in assay [4] is “do not cause any liberation of free inositol phosphates”; in assay [4] (listed as 135-25) it was “no IPn-generating capacity”; in assay [4] (listed as Ant135-25), “no partial activity at all; also recorded: fails to show any agonistic activity at the Type II marmoset GnRHR”; in assay [4] (listed as antagonist 135-25), “failed to generate significant free inositol phosphate”.

In the case of “Ac-D-Nal(2)-D-4-ClPhe-D-Pal-Ser-Ile-D-IsopropylLys-Leu-IsopropylLys-Pro-D -AlaNH2 [Ant 135-18]”, the “anti-proliferative effect” value in assay [3] was “much lower potency and efficacy compared to 135-25, GnRH I and II”; in assay [3] (listed as Ant135-18), “failed to demonstrate an anti-proliferative effect of a similar magnitude to that generated by GnRH I, GnRH II or Ant135-25”. Besides, the “extent … (activation)” value in the assay on ERK1/2 [1] was “least effective”; in the assay on ERK1/2 [1] (listed as Ant135-18) it was “considerably less”. Also, the “extent of ERK1/2 activation” value is listed as “A similar pattern to JEG-3 of ligand activation” in the assay with ERK1/2 [2] and “considerably less” in the assay with ERK1/2 [2] (listed as Ant135-18). Besides, the “agonistic activity … at Type I GnRH receptor” value is “little classical agonistic capacity” at Type I GnRH receptor, “no activation of the PLC-β signal at the Type I receptor evident” at Type I GnRH receptor (listed as 135-18) and “demonstrate no partial agonistic activity” at Type I GnRH receptor (listed as Ant135-18). In addition, the “agonistic activity: liberated inositol phosphates at marmoset Type II GnRH receptor” value in assay [4] was “considerable partial agonistic activity; also recorded: dose-dependent agonistic activity”; in assay [4] (listed as 135-18), “only the Type II receptor was activated by 135-18”.

Regarding “GnRH I: Gonadotropin-Releasing Hormone, a decapeptide; the original form of GnRH, re-named GnRH I”, the “anti-proliferative effect” value in assay [3] is “potent and dose-dependent anti-proliferative effect; also recorded: clear dose-response relationships for the inhibition of cellular growth”. In addition, in the assay with ERK1/2 [1], the “extent … (activation)” value is “activate ERK1/2 to a similar extent”. For the same compound, in the assay with ERK1/2 [2] (FIG. 5 panel a), the “ERK1/2 activation, dose dependence” value is “strong and dose-dependent activation of ERK1/2”. The “extent of ERK1/2 activation” value in the assay with ERK1/2 [2] is “A similar pattern to JEG-3 of ligand activation”. Further, the inositol phosphate accumulation result in the assay on PLC-β is “only high doses of GnRH I and Ant 135-25 cause any significant accumulation of inositol phosphates; also recorded: small capacity to induce inositol phosphate accumulation”. For the same compound, the “effect of pertussis toxin pre-incubation on induced inositol phosphate accumulation” value in the assay with PLC-β (PTX 200 ng/ml 16 h, GnRH I 50 μM) is “abrogated by a 16 h pre-incubation of the BPH-1 cells with 200 ng/ml of pertussis toxin”. For the same compound, the “agonistic activity … at Type I GnRH receptor” value in the assay with Type I GnRH receptor is listed as “yields an increase in free tritiated inositol phosphates; also recorded: significant increase in liberated inositol phosphates”.

These data come from US7361633B2, “Screening method and anti-tumor drug candidate obtained therefrom” (Ardana Bioscience Limited, priority 2002, dated 2008).
